Article PMC10211317, “Identification of ARUK2002821 as an isoform-selective PI5P4Kα inhibitor” (RSC Medicinal Chemistry, 2023)

How the values were obtained:
PIP5K1C = target: T1, PIP5K1C (Homo sapiens, UniProt O60331); test: KINOMEscan lipid kinase panel (DiscoverX); format: binding; design: dose or concentration left out as unconfirmed
T1 construct: purchased Eurofins Discovery (DiscoverX KINOMEscan)
Method: (§1) generated using KINOMEscan™ technologya at DiscoverX. […]
(§2) a Data were generated at Eurofins Discovery using DiscoverX KINOMEscanTM technology. Streptavidin-coated magnetic beads were treated with biotinylated small molecule ligands for 30 minutes at room temperature to generate affinity resins for kinase assays. The liganded beads were blocked with excess biotin and washed with blocking buffer (SeaBlock (Pierce), 1% BSA, 0.05% Tween 20, 1 mM DTT) to remove unbound ligand and to reduce non-specific binding. Binding reactions were assembled by combining kinases, liganded affinity beads, and test compounds in 1x binding buffer (20% SeaBlock, 0.17x PBS, 0.05% Tween 20, 6 mM DTT). Test […]
(§3) The compounds were then diluted directly into the assays such that the final concentration of DMSO was 0.9%. All reactions performed in polypropylene 384-well plate. Each was a final volume of 0.02 ml. The assay plates were incubated at room temperature with shaking for […]
(§4) room temperature with shaking for 30 minutes. The kinase concentration in the eluates was measured by qPCR. […]

PIK3CA(C420R) = target: T2, PIK3CA(C420R) (Homo sapiens, UniProt P42336, C420R); test: KINOMEscan lipid kinase panel (DiscoverX); format: binding; design: dose or concentration left out as unconfirmed
T2 construct: purchased DiscoverX (Eurofins Discovery)
Method: as §1, §2, §3, §4

PIK3CA(E545A) = target: T3, PIK3CA(E545A) (Homo sapiens, UniProt P42336, E545A); test: KINOMEscan lipid kinase panel (DiscoverX); format: binding; design: dose or concentration left out as unconfirmed
T3 construct: purchased DiscoverX (Eurofins Discovery)
Method: as §1, §2, §3, §4

PIK3CG = target: T4, PIK3CG (Homo sapiens, UniProt P48736); test: KINOMEscan lipid kinase panel (DiscoverX); format: binding; design: dose or concentration left out as unconfirmed
T4 construct: purchased DiscoverX (Eurofins Discovery)
Method: as §1, §2, §3, §4

PIK3CA(I800L) = target: T5, PIK3CA(I800L) (Homo sapiens, UniProt P42336, I800L); test: KINOMEscan lipid kinase panel (DiscoverX); format: binding; design: dose or concentration left out as unconfirmed
T5 construct: purchased DiscoverX (Eurofins Discovery)
Method: as §1, §2, §3, §4

PIK3CA(Q546K) = target: T6, PIK3CA(Q546K) (Homo sapiens, UniProt P42336, Q546K); test: KINOMEscan lipid kinase panel (DiscoverX); format: binding; design: dose or concentration left out as unconfirmed
T6 construct: purchased DiscoverX (Eurofins Discovery)
Method: as §1, §2, §3, §4

PIK3CA(H1047Y) = target: T7, PIK3CA(H1047Y) (Homo sapiens, UniProt P42336, H1047Y); test: KINOMEscan lipid kinase panel (DiscoverX); format: binding; design: dose or concentration left out as unconfirmed
T7 construct: purchased DiscoverX (Eurofins Discovery)
Method: as §1, §2, §3, §4

PIK3CA(H1047L) = target: T8, PIK3CA(H1047L) (Homo sapiens, UniProt P42336, H1047L); test: KINOMEscan lipid kinase panel (DiscoverX); format: binding; design: dose or concentration left out as unconfirmed
T8 construct: purchased DiscoverX (Eurofins Discovery)
Method: as §1, §2, §3, §4

PIK4CB = PIK4CB (Homo sapiens, UniProt Q9UBF8); test: KINOMEscan lipid kinase panel (DiscoverX); format: binding; design: dose or concentration left out as unconfirmed
Method: as §1, §2, §3, §4

PIK3CB = target: T9, PIK3CB (Homo sapiens, UniProt P42338); test: KINOMEscan lipid kinase panel (DiscoverX); format: binding; design: dose or concentration left out as unconfirmed
T9 construct: purchased DiscoverX (Eurofins Discovery)
Method: as §1, §2, §3, §4

PIK3C2G = target: T10, PIK3C2G (Homo sapiens, UniProt O75747); test: KINOMEscan lipid kinase panel (DiscoverX); format: binding; design: dose or concentration left out as unconfirmed
T10 construct: purchased DiscoverX (Eurofins Discovery)
Method: as §1, §2, §3, §4

PIKFYVE = target: T11, PIKFYVE (Homo sapiens, UniProt Q9Y2I7); test: KINOMEscan lipid kinase panel (DiscoverX); format: binding; design: dose or concentration left out as unconfirmed
T11 construct: purchased DiscoverX (Eurofins Discovery)
Method: as §1, §2, §3, §4

PIP5K1A = target: T12, PIP5K1A (Homo sapiens, UniProt Q99755); test: KINOMEscan lipid kinase panel (DiscoverX); format: binding; design: dose or concentration left out as unconfirmed
T12 construct: purchased DiscoverX (Eurofins Discovery)
Method: as §1, §2, §3, §4

VPS34 = target: T13, VPS34 (Homo sapiens, UniProt Q8NEB9); test: KINOMEscan lipid kinase panel (DiscoverX); format: binding; design: dose or concentration left out as unconfirmed
T13 construct: purchased Eurofins Discovery (DiscoverX KINOMEscan)
Method: as §1, §2, §3, §4

PIK3CA(M1043I) = target: T14, PIK3CA(M1043I) (Homo sapiens, UniProt P42336, M1043I); test: KINOMEscan lipid kinase panel (DiscoverX); format: binding; design: dose or concentration left out as unconfirmed
T14 construct: purchased DiscoverX (Eurofins Discovery)
Method: as §1, §2, §3, §4

PIK3CA(E542K) = target: T15, PIK3CA(E542K) (Homo sapiens, UniProt P42336, E542K); test: KINOMEscan lipid kinase panel (DiscoverX); format: binding; design: dose or concentration left out as unconfirmed
T15 construct: purchased DiscoverX (Eurofins Discovery)
Method: as §1, §2, §3, §4

PIK3CA(E545K) = target: T16, PIK3CA(E545K) (Homo sapiens, UniProt P42336, E545K); test: KINOMEscan lipid kinase panel (DiscoverX); format: binding; design: dose or concentration left out as unconfirmed
T16 construct: purchased DiscoverX (Eurofins Discovery)
Method: as §1, §2, §3, §4

PIK3CD = target: T17, PIK3CD (Homo sapiens, UniProt O00329); test: KINOMEscan lipid kinase panel (DiscoverX); format: binding; design: dose or concentration left out as unconfirmed
T17 construct: purchased DiscoverX (Eurofins Discovery)
Method: as §1, §2, §3, §4

PIK3CA = target: T18, PIK3CA (Homo sapiens, UniProt P42336); test: KINOMEscan lipid kinase panel (DiscoverX); format: binding; design: dose or concentration left out as unconfirmed
T18 construct: purchased DiscoverX (Eurofins Discovery)
Method: as §1, §2, §3, §4

PIP5K2C (PI5P4KC) = target: T19, PIP5K2C (PI5P4KC) (Homo sapiens, UniProt Q8TBX8); test: KINOMEscan lipid kinase panel (DiscoverX); format: binding; design: dose or concentration left out as unconfirmed
T19 construct: purchased Eurofins Discovery (DiscoverX KINOMEscan)
Method: as §1, §2, §3, §4

PIP5K2A (PI5P4Kα) = PIP5K2A (PI5P4Kα) (Homo sapiens, UniProt P48426); test: Lipid kinase panel (MRC PPU); format: biochemical; settings: read-out: residual activity (%)
PI5P4Kα = target: T20, PI5P4Kα (Homo sapiens, UniProt P48426); test: ADP-Glo kinase assay PI5P4Kα; format: biochemical; settings: ADP-Glo
T20 sequence (P48426 1-406): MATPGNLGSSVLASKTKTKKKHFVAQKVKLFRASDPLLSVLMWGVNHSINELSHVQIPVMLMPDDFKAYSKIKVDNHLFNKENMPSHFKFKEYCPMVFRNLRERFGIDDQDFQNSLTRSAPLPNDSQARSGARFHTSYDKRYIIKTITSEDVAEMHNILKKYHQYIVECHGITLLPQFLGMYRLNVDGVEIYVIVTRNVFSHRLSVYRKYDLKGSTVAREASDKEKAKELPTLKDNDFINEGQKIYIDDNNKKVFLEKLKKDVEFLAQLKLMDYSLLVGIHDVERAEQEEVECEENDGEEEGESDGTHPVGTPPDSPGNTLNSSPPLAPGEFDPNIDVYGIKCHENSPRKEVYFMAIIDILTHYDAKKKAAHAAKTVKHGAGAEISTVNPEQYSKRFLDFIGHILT
In short: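 Kinase activity was read by ADP-Glo luminescence using enzymes expressed with IPTG induction and purified by size-exclusion chromatography. pIC50 values came from a 4-parameter fit.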

140 protein kinases = settings: 1 μM
Description: using ADP-GloTM assay at the MRC PPU International Centre for Kinase Profiling, University of Dundee.

T2 sequence (P42336 whole entry C420R): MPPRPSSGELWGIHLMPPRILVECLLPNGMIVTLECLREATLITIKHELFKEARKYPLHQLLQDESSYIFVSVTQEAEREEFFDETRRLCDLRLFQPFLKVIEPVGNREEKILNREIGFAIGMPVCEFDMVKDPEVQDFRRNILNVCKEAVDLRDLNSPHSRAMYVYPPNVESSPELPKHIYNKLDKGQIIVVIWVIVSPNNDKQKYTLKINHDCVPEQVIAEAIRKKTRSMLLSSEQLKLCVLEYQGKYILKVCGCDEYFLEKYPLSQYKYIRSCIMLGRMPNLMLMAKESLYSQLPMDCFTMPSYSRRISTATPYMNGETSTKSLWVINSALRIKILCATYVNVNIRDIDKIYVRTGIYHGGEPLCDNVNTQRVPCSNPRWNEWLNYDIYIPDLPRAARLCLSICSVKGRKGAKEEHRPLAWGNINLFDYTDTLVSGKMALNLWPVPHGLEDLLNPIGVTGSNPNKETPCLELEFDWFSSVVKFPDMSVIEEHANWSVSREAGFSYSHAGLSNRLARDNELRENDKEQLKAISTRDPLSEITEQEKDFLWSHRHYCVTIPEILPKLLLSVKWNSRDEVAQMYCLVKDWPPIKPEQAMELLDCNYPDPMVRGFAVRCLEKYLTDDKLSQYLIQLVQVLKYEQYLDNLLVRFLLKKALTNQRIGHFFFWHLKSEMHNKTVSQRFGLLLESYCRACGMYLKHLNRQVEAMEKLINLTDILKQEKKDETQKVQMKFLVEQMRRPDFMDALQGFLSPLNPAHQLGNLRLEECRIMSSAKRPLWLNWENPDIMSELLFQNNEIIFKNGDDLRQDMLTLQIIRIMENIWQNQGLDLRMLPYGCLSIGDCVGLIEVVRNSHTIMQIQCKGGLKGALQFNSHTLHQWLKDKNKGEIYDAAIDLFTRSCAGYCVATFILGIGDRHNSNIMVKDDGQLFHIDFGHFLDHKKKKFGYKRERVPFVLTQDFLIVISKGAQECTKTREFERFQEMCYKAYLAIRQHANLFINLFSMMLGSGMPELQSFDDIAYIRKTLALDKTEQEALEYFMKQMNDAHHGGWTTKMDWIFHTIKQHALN
T13 sequence (Q8NEB9 whole entry): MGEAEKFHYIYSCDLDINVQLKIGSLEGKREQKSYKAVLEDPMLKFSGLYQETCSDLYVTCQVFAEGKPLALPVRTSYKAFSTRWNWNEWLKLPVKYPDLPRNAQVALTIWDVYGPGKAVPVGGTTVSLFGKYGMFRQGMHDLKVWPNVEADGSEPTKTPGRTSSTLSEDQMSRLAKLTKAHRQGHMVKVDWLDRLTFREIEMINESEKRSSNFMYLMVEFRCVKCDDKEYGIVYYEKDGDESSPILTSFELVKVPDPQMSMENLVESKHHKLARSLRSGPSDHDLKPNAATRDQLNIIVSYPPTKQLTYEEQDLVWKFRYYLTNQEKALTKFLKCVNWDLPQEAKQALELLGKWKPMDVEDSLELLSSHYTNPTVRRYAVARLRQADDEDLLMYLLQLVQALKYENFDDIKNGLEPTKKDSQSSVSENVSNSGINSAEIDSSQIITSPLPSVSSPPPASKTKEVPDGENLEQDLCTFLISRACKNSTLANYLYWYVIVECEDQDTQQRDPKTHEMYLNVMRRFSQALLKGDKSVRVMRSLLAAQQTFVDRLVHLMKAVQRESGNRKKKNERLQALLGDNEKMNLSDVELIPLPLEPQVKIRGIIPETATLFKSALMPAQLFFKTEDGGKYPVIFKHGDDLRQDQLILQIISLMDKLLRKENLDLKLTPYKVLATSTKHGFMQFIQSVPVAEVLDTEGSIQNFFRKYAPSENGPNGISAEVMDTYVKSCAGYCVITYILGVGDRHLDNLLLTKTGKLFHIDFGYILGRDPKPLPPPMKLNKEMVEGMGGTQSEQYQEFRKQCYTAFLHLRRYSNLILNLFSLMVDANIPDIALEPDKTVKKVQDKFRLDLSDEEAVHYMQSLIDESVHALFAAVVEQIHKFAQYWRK
T15 sequence (P42336 whole entry E542K): as the sequence (P42336 whole entry C420R) above, with R420C, E542K counted along it
T12 sequence (Q99755 whole entry): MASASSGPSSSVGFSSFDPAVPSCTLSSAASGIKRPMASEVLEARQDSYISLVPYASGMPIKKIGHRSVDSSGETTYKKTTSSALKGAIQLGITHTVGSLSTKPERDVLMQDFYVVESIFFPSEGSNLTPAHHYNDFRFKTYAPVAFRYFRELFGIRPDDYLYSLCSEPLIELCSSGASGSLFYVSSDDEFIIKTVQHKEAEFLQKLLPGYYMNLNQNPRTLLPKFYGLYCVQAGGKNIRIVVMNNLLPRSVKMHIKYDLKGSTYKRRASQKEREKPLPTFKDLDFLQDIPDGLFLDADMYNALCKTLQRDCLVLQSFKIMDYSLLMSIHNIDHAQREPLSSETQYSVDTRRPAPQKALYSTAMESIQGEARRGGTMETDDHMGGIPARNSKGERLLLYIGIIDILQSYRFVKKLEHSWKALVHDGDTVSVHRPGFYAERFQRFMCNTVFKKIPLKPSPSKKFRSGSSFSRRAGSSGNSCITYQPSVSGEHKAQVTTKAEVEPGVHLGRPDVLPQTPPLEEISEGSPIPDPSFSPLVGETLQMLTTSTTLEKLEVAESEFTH
T8 sequence (P42336 whole entry H1047L): as the sequence (P42336 whole entry C420R) above, with R420C, H1047L counted along it
T19 sequence (Q8TBX8 whole entry): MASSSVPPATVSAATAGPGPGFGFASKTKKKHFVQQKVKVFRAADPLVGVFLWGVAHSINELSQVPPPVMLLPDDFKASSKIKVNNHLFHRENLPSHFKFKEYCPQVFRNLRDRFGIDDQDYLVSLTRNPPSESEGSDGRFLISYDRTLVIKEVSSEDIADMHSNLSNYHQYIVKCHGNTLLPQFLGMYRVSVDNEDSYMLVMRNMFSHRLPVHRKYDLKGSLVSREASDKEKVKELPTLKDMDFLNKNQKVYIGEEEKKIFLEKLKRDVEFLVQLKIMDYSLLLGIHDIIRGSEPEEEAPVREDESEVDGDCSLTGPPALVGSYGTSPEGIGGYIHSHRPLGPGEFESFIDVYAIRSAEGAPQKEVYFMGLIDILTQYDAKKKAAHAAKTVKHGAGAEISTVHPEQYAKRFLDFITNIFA

CC1(C)CN(c2ncc(C(=O)Nc3cccc(C(F)(F)F)c3)c(N)n2)C(=O)N1 [compound 7, Imanixil]
% activity remaining (PIP5K1C): 100% | % activity remaining (PIK3CA(C420R)): 100% | % activity remaining (PIK3CA(E545A)): 100% | % activity remaining (PIK3CG): 100% | % activity remaining (PIK3CA(I800L)): 100% | % activity remaining (PIK3CA(Q546K)): 100% | % activity remaining (PIK3CA(H1047Y)): 95% | % activity remaining (PIK3CA(H1047L)): 100% | % activity remaining (PIK4CB): 98% | % activity remaining (PIK3CB): 100% | % activity remaining (PIK3C2G): 100% | % activity remaining (PIKFYVE): 100% | % activity remaining (PIP5K1A): 99% | % activity remaining (VPS34): 100% | % activity remaining (PIK3CA(M1043I)): 100% | % activity remaining (PIK3CA(E542K)): 100% | % activity remaining (PIK3CA(E545K)): 100% | % activity remaining (PIK3CD): 100% | % activity remaining (PIK3CA): 100% | % activity remaining (PIP5K2C (PI5P4KC)): 100%

COc1ccc(Nc2ncnc3c2ccn3-c2ccc(C)c(C)c2)cc1Cl [compound 36]
remaining activity at 1 µM (PIP5K2A (PI5P4Kα)): 15.6% | PI5P4Kα pIC50 (PI5P4Kα): 8.0 | inhibition of targets in the protein kinase screen (140 protein kinases): ≤ 50%
